Measurements: patent publication US12329159B2, “Systems and methods for use of chlorine dioxide in cultivation and post-harvest applications” (Prokure Solutions, LLC, priority 2018, dated 2025)
Values joined by “and” are separate entries in the source; they are usually repeats but may differ in a detail not shown here. Equal entries are not always repeated.

Legend:
Assay type in all cases: in vivo
Cannabis plants [1] = experiment: Toxicity responses of Cannabis plants to foliar applications of chlorine dioxide; details: for plants with damage to floral tissue (discoloration): after the third application
Description: Regular and excessive rates of chlorine dioxide dissolved in water were sprayed up to five times at 2-day intervals on two varieties of Cannabis plants in both vegetative and flowering stages to determine if plant damage would result. Adverse effects were assessed based on visible discoloration or chlorosis of leaves and/or flowers. All plants were monitored for several days after the final application of chlorine dioxide.
Experiments were performed in a greenhouse with temperatures between 70° F. and 80° F. Plants were potted in soil and appeared healthy and undamaged prior to treatment. All plants received the same amount of water and nutrients as controls, delivered via soil drenching. All plants, including controls, were the same age. At the beginning of the experiments, both flowering and vegetative plants had 3 weeks of the respective growth stage remaining.
Concentrations of chlorine dioxide tested include 0, 50, 100, and 500 ppm. All chlorine dioxide solutions were prepared from 500 ppm stock solution, mixed in containers and used immediately. Each of the rates was tested in triplicate with separate plants in both stages of growth and with Cannabis indica and Cannabis sativa Cannabis plants. A common trigger sprayer bottle with the tip adjusted to a mist setting was used to apply treatments. Plants were sprayed until all leaves and stems were visibly wet. Each treatment rate was applied at 2-day intervals, and the number of applications ranged from 1 to 5 depending on the amount of damage that occurred to the plant.
Damage was assessed 2 days after an application and prior to the next application. Treated plants were assessed for damage 6 days after the 5th and final spray treatment. Observed symptoms associated with the application of chlorine dioxide were necrosis of leaf tissue appearing as lesions between and across leaf veins and at leaf margins. Early symptoms included yellowing of leaves. Some lesions had dark brown borders and/or appeared desiccated.

Cannabis plants [2] = experiment: Effects of chlorine dioxide on vegetative growth (grow tent, leaf count); details: about 3 mg of chlorine dioxide per hour, 10 days; for Leaf Count # of new leaves / Leaf Count Final: Experimental tent, 240 cubic feet
Description: Experiments were performed to determine the effects of using a continuous release dose of about 3 mg of chlorine dioxide per hour on the vegetative growth of Cannabis plants.
Cannabis plants were placed in a grow tent and grown under artificial lighting for 10 days. Leaf counts were performed prior to placing in the tent and again after 10 days. Two separate grow tents were used, one for the experiment and one as the control. The total leaf count was compared between the experimental and control plants. Temperature and relative humidity measurements were taken 3 times per day to ensure both tents maintained the same environmental conditions.
A pouch was hung from the top of the inside of the experimental tent. The pouch dispensed approximately 3 mg of chlorine dioxide per hour for the duration of the trial (10 days). Within the experimental tent the Cannabis plants were exposed to about 720 mg of gaseous chlorine dioxide over the 10-day period.
Three Cannabis plants were placed into each tent. Two of the plants were of a Cannabis indica variety, and one plant was a Cannabis sativa variety. The photoperiod used in both tents was 20 hours with lights on followed by 4 hours with lights off. All watering, nutrients, pest control, etc. were identical for all plants.

Cladosporium = experiment: Spore trap testing, treated greenhouse: Cladosporium; details: 1.2 mg chlorine dioxide gas per hour per 4000 cubic feet
Description: (§1) Very low-level chlorine dioxide protection using about 3 mg chlorine dioxide gas per hour for every 4000 cubic feet (50-gram ProKure® D Extended Release Gas product (ProKure® Solutions), 2000 mg total over 4 weeks) was tested to determine the effects on reduction and prevention of fungal microorganism counts. The rate of chlorine dioxide production will vary depending on the relative humidity (RH) in the room. The above rate is for RH range of 40-60%. Each 3 mg chlorine dioxide per hour product (50-gram) unit will cover 4000 cubic feet of space. The 4000 cubic foot volume is recommended for safety reasons. This volume of space insures that the concentration of the gas remains below the OSHA regulated Permissible Exposure Limit (PEL) which is 0.1 ppmv (time weighted average (TWA) over a 8-hours per day or 40-hour work week) and the Short Term Exposure Limit (STEL) which is 0.3 ppmv (TWA over any 15-minute period) for chlorine dioxide.
(§2) All data is based on the dose described a unless otherwise noted. The spore counts per cubic meter prior to treatment are compared to spore counts per cubic meter post treatment with the treatment time indicated. […]
(§3) Treatment was performed using 1.2 mg chlorine dioxide gas per hour per 4000 cubic feet. […] The fungus could not be detected by visual inspection after about 30 days of treatment. […]

Ulocladium = experiment: Spore trap testing, treated greenhouse: Ulocladium; details: 1.2 mg chlorine dioxide gas per hour per 4000 cubic feet
Description: as §1, §2, §3

[3] = test system: visible mold growing on flowers; experiment: Trial 3: gaseous chlorine dioxide treatment of flowering plants with visible mold; details: 0.45 mg chlorine dioxide gas per cubic foot, 18 hours
Description: A third trial was performed in a 33400 cubic foot space with 840 flowering plants at week eight of an eight-week cultivation cycle. Most plants had visible mold growing on flowers. The chlorine dioxide dose was 0.45 mg chlorine dioxide gas per cubic foot of space. Contact time was 18 hours, the room was maintained in darkness for the first 12 hours, and grow lights came on for the last 6 hours contact time, but the chlorine dioxide gas concentration monitoring was only performed for about 10 hours.
The HVAC system for the 33400 cubic foot space that had 840 flowering plants in the last week of flower failed. Within hours the temperature and humidity increased, and visible mold growth was found on most of the flower within 24 hours. To treat the mold and potentially prevent the loss of over 100 pounds of Cannabis flower product, a dose of 0.45 mg chlorine dioxide gas per cubic foot was dispensed into the space (14× ProKure® G Fast Release Gas packets (25-gram) (ProKure® Solutions)). […] Essentially, it was never above the detection limit of the sensor (0.5 ppmv). […] An odor would be expected for this application rate, so the lack of odor provides further evidence that the concentration of chlorine dioxide remained below the odor threshold of about 0.03 to 0.1 ppmv. […]

[4] = 500 ppm foliar spray, all plants, after the fifth application

Compound: [O][Cl+][O-] [chlorine dioxide]
- foliar or flower tissue damage (Cannabis plants [1]; 50 ppm chlorine dioxide in water, foliar spray, five applications at 2-day intervals): No foliar or flower tissue damage was visible
- plants exhibiting damage to leaves (Cannabis plants [1]; 100 ppm foliar spray, indica-type flowering plants, two days after the 4th application): Two out of the three
- damage to leaves or flowers (Cannabis plants [1]; 100 ppm foliar spray, sativa-type flowering plants): None of the sativa-type flowering plants exhibited damage to leaves or flowers
- visible damage to leaves (Cannabis plants [1]; 100 ppm foliar spray, vegetative plants of both varieties): exhibited visible damage to leaves following the fourth application
- smell compared with control plants (Cannabis plants [1]; [4]): did not have the same smell as control plants
- tissue damage (Cannabis plants [1]; [4]): exhibited tissue damage after the fifth application
- leaf damage (Cannabis plants [1]; 500 ppm foliar spray, all plants, single application): exhibited leaf damage 24 to 48 hours after a single application
- plants with damage to floral tissue (discoloration) (Cannabis plants [1]; 500 ppm foliar spray, indica-type plants): 2 of the 3
- plants with damage to floral tissue (discoloration) (Cannabis plants [1]; 500 ppm foliar spray, sativa-type plants): 1 of the 3
- Leaf Count # of new leaves (Cannabis plants [2]; Indica): 68 and 36
- Leaf Count Final (Cannabis plants [2]; Indica): 92 and 61
- Leaf Count # of new leaves (Cannabis plants [2]; Sativa): 52
- Leaf Count Final (Cannabis plants [2]; Sativa): 83
- visible sign of adverse effects (Cannabis plants [2]; 240 cubic feet tent): none of the plants showed any visible sign of adverse effects
- Cladosporium spore Count (Cladosporium; 7 Days Post-Treatment): 54 per cubic meter
- Cladosporium spore Count (Cladosporium; 45 Days Post-Treatment): 0 per cubic meter
- Ulocladium spore Count (Ulocladium; 7 Days Post-Treatment): 0 per cubic meter
- Ulocladium spore Count (Ulocladium; 45 Days Post-Treatment): 0 per cubic meter
- visible mold on the plants after the application [3]: No mold was visible on the plants after the application
